Reference: PubChem BioAssay (NCI)
Several values for one entry are separate records, joined by “and”; a condition that tells them apart may be missing. Equal entries are not always repeated.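 Values below derive from 48-hour exposures of cells grown in 96-well plates, with endpoints linearly interpolated between the two concentrations bracketing the appropriate inhibition level. GI50 marks 50% less growth. The concentration for full growth arrest is given as TGI.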

What was measured:
Assay in all cases: NCI-60 cell line screen, 48 h
[1] = tested on: DU-145 prostate
[2] = tested on: EKVX NSCLC
[3] = tested on: HCT-15 colon
[4] = tested on: HS 578T breast
[5] = tested on: K-562 leukemia
[6] = tested on: MDA-MB-231 breast
[7] = tested on: NCI-H522 lung
[8] = tested on: OVCAR-8 ovarian
[9] = tested on: RPMI-8226 leukemia
[10] = tested on: SK-OV-3 ovarian

| Structure (SMILES) | GI50 [1] [µM] | TGI [1] [µM] | GI50 [2] | TGI [2] [µM] | GI50 [3] [µM] | TGI [3] [µM] | GI50 [4] [µM] | TGI [4] [µM] | GI50 [5] [µM] | TGI [5] [µM] | GI50 [6] [µM] | TGI [6] [µM] | GI50 [7] [µM] | TGI [7] [µM] | GI50 [8] [µM] | TGI [8] [µM] | GI50 [9] [µM] | TGI [9] [µM] | GI50 [10] [µM] | TGI [10] [µM] |
| --- | --- | --- | --- | --- | --- | --- | --- | --- | --- | --- | --- | --- | --- | --- | --- | --- | --- | --- | --- | --- |
| CCS/C(Nc1ccccc1)=C(\C#N)C(=O)Nc1ccc(OC)cc1 | 3.48 | 49.8 | 4.42 µM | > 100 | 1.19 | > 100 | 4.07 | > 100 | 0.436 | > 100 | 4.14 | 36.5 | 2.2 | 9.68 | 4.37 | > 100 | 2.52 | > 100 | 3.28 | 50.2 |
| CC#CC(=O)N1CCC[C@H]1c1nc(-c2ccc(C(=O)Nc3ccccn3)cc2)c2c(N)nccn12 | 71 | > 100 | 35 µM | > 100 | > 72.3 | > 100 | > 72.5 | > 100 | > 88.2 | > 100 | 28.1 | > 100 | 13.9 | > 100 | > 80.4 | > 100 | 59 | > 100 | 2.25 | > 100 |
| C=C(C)[C@H]1CC/C(C)=C/CCC(C)C(=O)CC/C(CO)=C\[C@@H]1O (stereo partly specified) | 60.8 | > 100 | 55.5 µM | > 100 | 5.47 | > 100 | 41.9 | > 100 | 65.6 | > 100 | > 100 | > 100 | 86.3 | > 100 | > 100 | > 100 | > 100 | > 100 | > 100 | > 100 |
| COC(=O)CCC1=C(C)c2cc3[n-]c(cc4nc(cc5[n-]c(cc1n2)c(CCC(=O)OC)c5C)C=C4C)cc3C.[Cd+2] | 4.5 | 10.4 | 5.89 µM | > 52.2 | 11.8 | > 55 | 5.73 | > 100 | 3.32 | > 30.8 | 7.28 | 31.4 | 0.265 | 0.754 | 9.95 | 75.4 | 4.23 | > 29.5 | 7.4 | 27.7 |
| COc1ccc(C(Nc2ncccn2)c2cc3c(cc2O)OCO3)cc1 (stereo unspecified) | – | 44.4 | – | 55.7 | – | 44.6 | – | 52.4 | – | > 100 | – | 48.2 | – | 31.7 | – | 45.2 | – | > 100 | – | 51.2 |
| Oc1ccc2ccccc2c1N=Nc1ccccc1 | – | > 100 | 15.5 µM and > 62.4 µM | > 100 | – | > 100 | – | > 100 | – | > 100 | – | > 100 | – | > 100 | – | > 100 | – | > 100 | – | > 100 |
